The subject of one assay is E. coli ribosome. Nature of the assay: Translocation inhibition assay. In kind it is biochemical, Escherichia coli. Conditions: 62.5 μM LAR or 250 μM negamycin, EF-G/GTP, primer extension.
A further assay deals with bacteria. Nature of the assay: Antibiotic activity compared with LAR. In kind it is cell-based. Conditions: Supplementary Fig. 11. As for the experimental part:
MICs were determined using broth microdilution method in cation-adjusted Mueller-Hinton Broth (MHBII, BD Difco) following standard procedures unless stated otherwise. Mycobacteria susceptibility was tested in Middlebrook 7H9 medium supplemented with 10% OADC Enrichment (oleic acid, bovine albumin, dextrose, and catalase) (BD Difco). The compounds (2 to 4 μl) were mixed with diluted cultures (5–7 × 10^5 cfu/mL) in MHB (196 to 198 μL) in 96-well round-bottom plates, and 2-fold serial dilutions were made. Plates were incubated at 37°C for 18–22 h, and OD600 readings were taken on Synergy Microplate Reader (Biotek). MIC was determined to be the lowest concentration of antibiotics with no visible growth. For Mycobacterial cultures, the plates were read after two to three days. Susceptibility was also assessed in MOPS minimal medium with 0.4% glucose (M2106 Teknova) and RPMI-1640 medium. Serum effects were tested in MHB with 10% or 50% fetal bovine serum (Invitrogen) or human serum (Heat Inactivated, from human male AB plasma; Sigma-Aldrich). For anaerobic conditions, E. coli was incubated in BD GasPak™ EZ pouch systems. To adjust the pH of the media, 1M NaOH or 1N HCl was used.

In assay [1] the test system is T. thermophilus 70S ribosome. Nature of the assay: X-ray structure of ribosome complex. Conditions: 70S ribosome with mRNA and tRNAs, 250 μM antibiotic. It is filed as binding, Thermus thermophilus.
The next assay deals with ClpP protease. Conditions: cited from earlier work.
The subject of the next assay is mycobacteria. Conditions: cited from earlier work.

“Also recorded” adds a separate entry of the source.

For the compound `CN(CC(=O)O)NC(=O)C[C@H](N)C[C@@H](O)CN` [negamycin, reference compound], in the assay with E. coli ribosome, the “Inhibition of ribosome translocation” value is reported as “interferes with the movement of mRNA/tRNA complex through the ribosome”.

Consider lariocidin B [LAR-B], for which the “Antibiotic activity relative to LAR” value in the assay with bacteria is “antibiotic activity comparable to that of the main LAR product; also recorded: closely matched that of LAR”. In addition, the “Ribosome binding (X-ray structure)” value in assay [1] was “Both LAR variants form very similar complexes with the ribosome”. lassomycin: the Target / activity entry with ClpP protease was “targets microbial ClpP protease”. For the same compound, the Antimycobacterial activity entry with mycobacteria was “exhibits antimycobacterial activity”.

Regarding triculamin, the Antimycobacterial activity entry in the assay with mycobacteria is recorded as “antimycobacterial”.
